Test results reported in patent publication US20080176932A1, “Pharmaceutical Compositions Containing Baicalein And Baicalin With Synergistic Effect In Tumor Treatment” (priority 2005, published 2008).
Where two headings read alike, the source gives them in different places.

Assays:
L1210 cells [1] = type: in vivo; conditions: B 30 mg/kg i.p., day 1-10
Description: (§1) L1210 cells on the growth phase were injected at 1×10^5 cells via I.P. into BDF1 female mice (weight approximately 20 g). The next day of implantation, mice were grouped, and received an injection of 0.1 ml/10 g weight of the drug. […] The number of mice of each group was 10. Mice were weighed before and after the treatment. Survival time of each mouse was recorded. The results of changes in increasing of life span of mice were used in assessment of response. The increase of life span was determined as; increase of life span rate=(median survival time of treated animals/median survival time of control animals−1)×100%, the data were analyzed by t-test.

[2] = test system: Human breast cancer cell line MCF-7; assay: MTT growth inhibition, baicalein and scutellarin single or combination; type: cell-based
Description: (§2) Cells were seeded onto 96-well plate at 5×10^3 cells/well, and grown in culture medium containing 10% fetal bovine serum (FBS). […] The viable cell growth was determined by MTT assay after 72-h continuous exposure.
(§3) A CI below 1 is an indication of synergy, while a CI equal to 1 represents addition, and a CI above 1 indicates antagonism.

[3] = test system: Human prostate cancer cell line PC3; assay: as above; type: cell-based
Description: as §2, §3

[4] = test system: Human esophagus cancer cell line TE2; assay: as above; type: cell-based
Description: as §2, §3

[5] = test system: Human hung cancer cell line A549; assay: as above; type: cell-based
[6] = test system: Human esophagus cancer cell line TE2
[7] = test system: Human gastric cancer cell line MKN28; assay: MTT growth inhibition, baicalein and scutellarin single or combination; type: cell-based
[8] = test system: human liver cancer cell line HepG2; assay: MTT growth inhibition, baicalein and baicalin single or combination; type: cell-based
Excerpt: The results of experiments with human liver cancer cell line HepG2 are illustrated in Table 1;

L1210 cells [9] = type: in vivo; conditions: B 30 mg/kg i.p., day 1-10; remark: listed apart in the source
Description: as §1

[10] = test system: Murine melanoma cell line B 16; assay: Solid tumor transplant model, baicalein and scutellarin; type: in vivo, C57BL/6 female mice; conditions: B16 mice, B 30 mg/kg i.p., day 1-10
Description: C57BL/6 female mice (weight approximately 20 g) were used in this study. Murine melanoma cell line B 16 cells, 2×10^6 tumor cells were implanted s.c. into the armpit of each mice after two passenges in vitro cultured. On the next day after implantation, mice were randomly grouped at 10 per group and received 0.1ml/10 g weight of the drugs. […] The number of mice of each group was 10. Mice were weighed before and post the treatment. Animals were killed on day 15, and the tumors were removed and weighted.

[11] = test system: human liver cancer cell line HepG2; assay: MTT growth inhibition, baicalein and scutellarin single or combination; type: cell-based
[12] = test system: Human leukemia cell line HL60; assay: as above; type: cell-based
[13] = test system: Human colon cancer cell line HCT116; assay: as above; type: cell-based
[14] = test system: Human leukemia cell line HL60; assay: MTT growth inhibition, baicalein and baicalin single or combination; type: cell-based
Excerpt: Human leukemia cell line HL60—Table 8.

[15] = test system: Human hung cancer cell line A549; assay: as above; type: cell-based
Excerpt: Human hung cancer cell line A549—Table 3;

[16] = test system: Human prostate cancer cell line PC3
[17] = test system: Human colon cancer cell line HCT116; assay: MTT growth inhibition, baicalein and baicalin single or combination; type: cell-based
Excerpt: Human colon cancer cell line HCT116—Table 2;

[18] = test system: Human gastric cancer cell line MKN28; assay: as above; type: cell-based
Excerpt: Human gastric cancer cell line MKN28—Table 4;

[19] = test system: Human breast cancer cell line MCF-7
[20] = test system: Murine melanoma cell line B 16; assay: Solid tumor transplant model, baicalein and baicalin; type: in vivo; conditions: B16 mice, B 30 mg/kg i.p., day 1-10
Description: C57BL/6 female mice (weight approximately 20 g) were used in this study. Murine melanoma cell line B 16 cells, 2×10^6 tumor cells were implanted s.c. into the armpit of each mice after two passenges in vitro cultured. On the next day after implantation, mice were randomly grouped at 10 per group and received 0.1 ml/10 g weight of the drugs. […] The number of mice of each group was 10. Mice were weighed before and post the treatment. Animals were killed on day 15, and the tumors were removed and weighted.

O=c1cc(-c2ccccc2)oc2cc(O)c(O)c(O)c12 [B, baicalein]
Number of mice Surviving through 15 days/total number (L1210 cells [1]): 10/10
ILS(%) increase of life span (L1210 cells [1]; L1210 mice): 31.6%
Inhibition of cell growth (%) ([2]; single dose 2.5 μm): 0.8 ± 2%
Inhibition of cell growth (%) ([2]; single dose 5 μm): 13.02 ± 2.5%
Inhibition of cell growth (%) ([2]; single dose 10 μm): 51.02 ± 2.2%
Inhibition of cell growth (%) ([2]; single dose 20 μm): 64.35 ± 2.2%
Inhibition of cell growth (%) ([2]; single dose 40 μm): 93 ± 2.5%
Inhibition of cell growth (%) ([3]; single dose 2.5 μm): 7.2 ± 5%
Inhibition of cell growth (%) ([3]; single dose 5 μm): 22.8 ± 6%
Inhibition of cell growth (%) ([3]; single dose 10 μm): 50.9 ± 5%
Inhibition of cell growth (%) ([3]; single dose 20 μm): 69.9 ± 5%
Inhibition of cell growth (%) ([3]; single dose 40 μm): 92.9 ± 7%
Inhibition of cell growth (%) ([4]; single dose 2.5 μm): 5 ± 2%
Inhibition of cell growth (%) ([4]; single dose 5 μm): 16.8 ± 1.2%
Inhibition of cell growth (%) ([4]; single dose 10 μm): 38.4 ± 2.1%
Inhibition of cell growth (%) ([4]; single dose 20 μm): 66.85 ± 2%
Inhibition of cell growth (%) ([4]; single dose 40 μm): 83.1 ± 2.1%
Inhibition of cell growth (%) ([5]; single dose 2.5 μm): 10.55 ± 1.2%
Inhibition of cell growth (%) ([5]; single dose 5 μm): 17.19 ± 2.2%
Inhibition of cell growth (%) ([5]; single dose 10 μm): 40.8 ± 3.2%
Inhibition of cell growth (%) ([5]; single dose 20 μm): 62.5 ± 2%
Inhibition of cell growth (%) ([5]; single dose 40 μm): 90.18 ± 2.1%
Inhibition of cell growth (%) ([6]; single dose 2.5 μm): 5.5 ± 1%
Inhibition of cell growth (%) ([6]; single dose 5 μm): 17.2 ± 2.8%
Inhibition of cell growth (%) ([6]; single dose 10 μm): 28 ± 2%
Inhibition of cell growth (%) ([6]; single dose 20 μm): 57.9 ± 2.1%
Inhibition of cell growth (%) ([6]; single dose 40 μm): 85.2 ± 2.3%
Inhibition of cell growth (%) ([7]; single dose 2.5 μm): 16.5 ± 1.1%
Inhibition of cell growth (%) ([7]; single dose 5 μm): 27.7 ± 2.1%
Inhibition of cell growth (%) ([7]; single dose 10 μm): 42.8 ± 2.3%
Inhibition of cell growth (%) ([7]; single dose 20 μm): 65.6 ± 3%
Inhibition of cell growth (%) ([7]; single dose 40 μm): 80.21 ± 2.5%
Inhibition of cell growth (%) ([8]; single dose 2.5 μm): 7.4 ± 2%
Inhibition of cell growth (%) ([8]; single dose 5 μm): 34.93 ± 3%
Inhibition of cell growth (%) ([8]; single dose 10 μm): 50.2 ± 3%
Inhibition of cell growth (%) ([8]; single dose 20 μm): 58.5 ± 2.5%
Inhibition of cell growth (%) ([8]; single dose 40 μm): 89.18 ± 2%
Number of mice Through surviving 15 days/total number (L1210 cells [9]): 10/10
ILS(%) increase of life span (L1210 cells [9]; L1210 mice): 31.6%
Final Tumor WT. (g) Mean ± SD ([10]; day 15): 1.72 ± 0.09 g
Tumor Growth Inhibition % ([10]; day 15): 21.1%
Number of mice through 15 days/total number [10]: 10/10
Weight Change % [10]: <5%
Inhibition of cell growth (%) ([11]; single dose 2.5 μm): 7.35 ± 2.2%
Inhibition of cell growth (%) ([11]; single dose 5 μm): 32.7 ± 2.3%
Inhibition of cell growth (%) ([11]; single dose 10 μm): 49.8 ± 2.1%
Inhibition of cell growth (%) ([11]; single dose 20 μm): 58.5 ± 1.2%
Inhibition of cell growth (%) ([11]; single dose 40 μm): 90.18 ± 2.5%
Inhibition of cell growth (%) ([12]; single dose 2.5 μm): 7.5 ± 2.7%
Inhibition of cell growth (%) ([12]; single dose 5 μm): 22.7 ± 2.2%
Inhibition of cell growth (%) ([12]; single dose 10 μm): 41.8 ± 2.7%
Inhibition of cell growth (%) ([12]; single dose 20 μm): 60.6 ± 3.2%
Inhibition of cell growth (%) ([12]; single dose 40 μm): 89.18 ± 2.1%
Inhibition of cell growth (%) ([13]; single dose 2.5 μm): 5.8 ± 2%
Inhibition of cell growth (%) ([13]; single dose 5 μm): 10.5 ± 2.3%
Inhibition of cell growth (%) ([13]; single dose 10 μm): 29.2 ± 2.7%
Inhibition of cell growth (%) ([13]; single dose 20 μm): 47 ± 3.1%
Inhibition of cell growth (%) ([13]; single dose 40 μm): 91.15 ± 2.5%
Inhibition of cell growth (%) ([14]; single dose 2.5 μm): 6.5 ± 2%
Inhibition of cell growth (%) ([14]; single dose 5 μm): 21.8 ± 3%
Inhibition of cell growth (%) ([14]; single dose 10 μm): 41.32 ± 2.7%
Inhibition of cell growth (%) ([14]; single dose 20 μm): 67.6 ± 3.2%
Inhibition of cell growth (%) ([14]; single dose 40 μm): 86.77 ± 3.3%
Inhibition of cell growth (%) ([15]; single dose 2.5 μm): 13.5 ± 4%
Inhibition of cell growth (%) ([15]; single dose 5 μm): 17.18 ± 3%
Inhibition of cell growth (%) ([15]; single dose 10 μm): 39.2 ± 2%
Inhibition of cell growth (%) ([15]; single dose 20 μm): 63.85 ± 3.2%
Inhibition of cell growth (%) ([15]; single dose 40 μm): 96.41 ± 2%
Inhibition of cell growth (%) ([16]; single dose 2.5 μm): 7.2 ± 5%
Inhibition of cell growth (%) ([16]; single dose 5 μm): 22.8 ± 6%
Inhibition of cell growth (%) ([16]; single dose 10 μm): 50.9 ± 5%
Inhibition of cell growth (%) ([16]; single dose 20 μm): 69.9 ± 5%
Inhibition of cell growth (%) ([16]; single dose 40 μm): 92.9 ± 7%
Inhibition of cell growth (%) ([17]; single dose 2.5 μm): 5.8 ± 2%
Inhibition of cell growth (%) ([17]; single dose 5 μm): 20.5 ± 3%
Inhibition of cell growth (%) ([17]; single dose 10 μm): 29.2 ± 3%
Inhibition of cell growth (%) ([17]; single dose 20 μm): 41 ± 2.7%
Inhibition of cell growth (%) ([17]; single dose 40 μm): 89.15 ± 3%
Inhibition of cell growth (%) ([18]; single dose 2.5 μm): 7.7 ± 3%
Inhibition of cell growth (%) ([18]; single dose 5 μm): 37.11 ± 2.9%
Inhibition of cell growth (%) ([18]; single dose 10 μm): 53 ± 3.2%
Inhibition of cell growth (%) ([18]; single dose 20 μm): 58 ± 2%
Inhibition of cell growth (%) ([18]; single dose 40 μm): 77 ± 3%
Inhibition of cell growth (%) ([19]; single dose 2.5 μm): 7.2 ± 2%
Inhibition of cell growth (%) ([19]; single dose 5 μm): 27.55 ± 2%
Inhibition of cell growth (%) ([19]; single dose 10 μm): 51 ± 3%
Inhibition of cell growth (%) ([19]; single dose 20 μm): 71.77 ± 2.5%
Inhibition of cell growth (%) ([19]; single dose 40 μm): 90.5 ± 2.5%
Final Tumor WT. (g) Mean ± SD ([20]; day 15): 1.72 ± 0.09 g
Tumor Growth Inhibition % ([20]; day 15): 21.1%
Weight Change % [20]: <5%
